Laboratory results: the METLIN SMRT retention time set (Domingo-Almenara et al. 2019)

Experiment: gradient 5% acetonitrile 3 min, to 50% in 2 min, to 85% in 15 min, held 3 min, 100 µL/min
Conditions: column: Zorbax Extend-C18 2.1 x 50 mm; eluents: water / acetonitrile, 0.1% formic acid
Summary of the method: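 Standards, all pure, were combined into mixtures of ~100 molecules and run at 100 μL/min on a Zorbax Extend-C18 column (2.1 × 50 mm, 1.8 μm) with water and acetonitrile, each containing 0.1% formic acid. A coupled quadrupole time-of-flight mass spectrometer operated in positive and negative ionization mode. Retention time values come from computationally picked adduct peaks, each inspected manually.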

RP-LC retention time [s]	SMILES
1020	Cc1ccccc1Cn1nc2ccc(S(=O)(=O)N3CCCCCC3)cn2c1=O
995	Cc1ccc(NC(=O)c2ccco2)c(C(=O)c2ccccc2)c1
971	O=C(Cn1cccc(-c2nc(-c3ccc(Cl)cc3)no2)c1=O)Nc1ccc(F)cc1F
818	COc1cccc(-n2c(N3CCCC(C(=O)NCC(C)C)C3)nc3ccsc3c2=O)c1 (stereo unspecified)
768	COc1ccc(NC(=O)N2CCC(n3c(C(F)(F)F)nc4cccnc43)CC2)c(OC)c1
611	CCCC1c2nccn2CCCN1C(=O)c1occc1C (stereo unspecified)
754	O=C(Cn1c(=O)n(-c2ccc(F)cc2)c2ncccc21)N1CCCCC1
597	O=C(CN1C(=O)CCC1=O)NCC(O)C1CCCCC1 (stereo unspecified)
608	CCN(CCNS(=O)(=O)c1ccc2c(c1)CCCC(=O)N2)Cc1ccccc1
959	Cc1ccc(S(=O)(=O)N2CC(=O)N(c3ccccc3F)C(C)(C(=O)NC3CCCC3)C2)cc1 (stereo unspecified)
666	O=C(Cc1cccs1)N1CCN(c2nnc3ccc(C(F)(F)F)cn23)CC1
600	COc1ccc(N2CC(c3nc4ccccc4n3CCN3CCOCC3)CC2=O)cc1 (stereo unspecified)
768	CN(C)C(=O)c1ccc2c(c1)n(Cc1ccccc1)c(=O)c1ccnn12
654	O=C(NCC1CCOCC1)c1n[nH]c2ccccc12
628	CCc1cc(=O)n(CC(=O)N(CC)c2ccccc2)c(N)n1
912	O=C(Cn1c2ccccc2c2ncn(Cc3nc(-c4ccccc4)no3)c(=O)c21)NC1CCCC1
1210	CCN1C(=O)C2(CCN(S(=O)(=O)c3ccc(C(C)C)cc3)CC2)c2ccccc21
1050	Cc1cn2c(S(=O)(=O)NC3CCCCCC3)c(C(C)C)nc2s1
620	CCN1CCN(c2cc(C)c3cc(NC(=O)CCC4CCCC4)ccc3n2)CC1
606	O=C(Nc1ccc2c(c1)OCCO2)c1cn2c(n1)COCC2
892	CC(C)c1ccc(CNC(=O)C2CCN(C(=O)c3ncn4c3COC(c3ccccc3)C4)CC2)cc1 (stereo unspecified)
709	CSc1ccc(CNC(=O)c2[nH]c3cc(C)sc3c2CN2CCOCC2)cc1

RP-LC retention time [s]	SMILES
910	COc1ccc(-c2cc(C(=O)N3CCN(S(=O)(=O)c4ccc(F)c(C)c4)CC3)[nH]n2)cc1
736	Cc1ccc(CNC(=O)CN2C(=O)C3CCCN3C(=O)c3cccc(C)c32)cc1 (stereo unspecified)
631	CCCn1cnc2cc(CNC(=O)C(C)c3ccccc3)ccc21 (stereo unspecified)
602	CCn1c(=O)c(SCC(=O)NCCCN2CCCCC2C)nc2ccccc21 (stereo unspecified)
808	CCc1ccc(S(=O)(=O)N2CC(F)(F)C[C@H]2CN2CCc3ccccc3C2)cc1
802	O=C(Cn1ccc2sccc2c1=O)Nc1ccc(Cl)cc1F
1030	CCn1ccc2ccc(CCC(=O)N3CCN(c4ccc(F)cc4)CC3)cc21
877	Cn1nc(-c2nnc(-c3ccccc3Cl)o2)c2c1CCN(C(=O)c1ccc(F)c(F)c1)C2
575	COc1ccc(NC(=O)CCC2CCN(c3cc(NC4CC4)ncn3)CC2)c(C)c1
1290	CC(C)c1ccc(-c2nc(C3CC(=O)N(c4ccc(F)c(Cl)c4)C3)no2)cc1 (stereo unspecified)
705	Cc1cc(=O)n(CC(=O)Nc2cccc(Br)c2)c(N2CCOCC2)n1
876	CCCc1nc(-c2c(C)cc(C)nc2NC(=O)C2CCCCC2)no1
589	C/C=C1/[C@H]2C=C(C)C[C@]1(N)c1ccc(=O)[nH]c1C2
659	O=C(Cc1ccc(NC(=O)C2CC2)cc1)NCc1cccs1
703	Cc1cc(S(=O)(=O)N2CCc3c(c(-c4nnc(-c5ccccc5)o4)nn3C)C2)ccc1F
629	CN(C)C(=O)c1n[nH]c2c1CN(C(=O)c1ccc(F)cc1F)CC2
848	Cc1noc(C)c1S(=O)(=O)NCCc1noc(-c2ccccc2)n1
672	COc1ccc(OC)c(NC(=O)CSc2ccc(N3CCCC(C(=O)NC4CC4)C3)nn2)c1 (stereo unspecified)
748	Cc1ccc(C)c(C(=O)N2CCCC(c3nc(CNC(=O)C4CCC4)cs3)C2)c1 (stereo unspecified)
922	O=C(NCCc1c[nH]c2ccc(Cl)cc12)c1ccc(-n2nnc3cccnc32)cc1
622	COc1ncccc1C(=O)N1CCC(C(=O)Nc2cc(C)on2)CC1
770	COc1cccc(CNC(=O)Cn2c(N3CCCC3)nc(C)cc2=O)c1

RP-LC retention time [s]	SMILES
584	O=C(NCCCN1CCN(C2CCCCC2)CC1)C1CCCN(C(=O)c2cccc(Cl)c2)C1 (stereo unspecified)
569	COc1ccc(NC(=O)N2CCCN(C3CCN(CC4CC4)C3=O)CC2)cc1Cl (stereo unspecified)
960	CSc1ccc(CNC(=O)C2CCN(c3c(C#N)cnc4ccc(Cl)cc34)CC2)cc1
1190	Cc1ccc(-c2noc(Cc3nc(-c4ccc(C)cc4C)cs3)n2)cc1
616	CC1=C(c2ccc(C)cc2)S(=O)(=O)N=C1N1CCCN(C(=O)Cn2ccnc2C)CC1
1030	CCc1nc(-c2cc(S(=O)(=O)N3CCC(C(=O)N4CCCCCC4)CC3)c(C)s2)no1
914	CC(=O)Nc1cccc(C2OC(c3ccc(Cl)cc3Cl)=NN2C(C)=O)c1 (stereo unspecified)
668	Cc1cc2c(cc1NC(=O)c1cccs1)n(C)c(=O)n2C
1310	COc1ccc(-c2noc(-c3ccc(N4CCN(c5ccccc5OC)CC4)nc3)n2)cc1
857	O=C([C@@H]1C[C@H](F)CN1C(=O)Nc1ccc(C(F)(F)F)cc1)N1CCc2ccccc2C1
782	O=C(Cn1nc(C2CC2)cc1C(=O)N1CCCC1)NCc1cccc(Cl)c1
729	O=C(Cn1nc2n(c1=O)CCCCC2)Nc1ccc(F)c(Cl)c1
806	COCCn1c(SCC(=O)Nc2nc3ccccc3s2)nc2c(c1=O)SC(C)C2 (stereo unspecified)
700	CCc1noc(-c2cccnc2N2CCCN(Cc3ccc(F)cc3Cl)CC2)n1
896	CCc1nc2ccccc2c(=O)n1Cc1noc(-c2cncc(Br)c2)n1
899	O=C(Nc1ccc(Br)cc1F)c1ccc(N2CCOCC2)nn1
824	O=C(Nc1ccc(Cl)cc1F)C1Oc2ccccc2NC1=O (stereo unspecified)
611	CC(=O)N1CCc2cc(-c3ccc(C(=O)N4CCN(c5ccccn5)CC4)cc3)ccc21
808	O=C(Cn1c2ccccc2c2ncn(Cc3nc(C4CC4)no3)c(=O)c21)Nc1ccc2c(c1)OCCO2
625	CCc1nnc(-c2nnc(N3CCCC3)c3ccccc23)o1
610	COC(=O)[C@H](Cc1cccc(C(=N)N)c1)[C@@H](C)NC(=O)c1ccc(-c2cc[n+]([O-])cc2)cc1

SMILES	RP-LC retention time [s]
COC1C(=O)N(c2cccc(F)c2)C12CCNCC2 (stereo unspecified)	604
